Measured values reported in patent US20040067889A1, “Stabilization of brain natriuretic peptide (BNP) in blood samples, methods and compositions related thereto” (priority 2002, published 2004).

Test system: endogenous proteases
Assay: Stability of synthetic BNP-32 spiked into normal human plasma with protease inhibitors (chemiluminescent BNP immunoassay)
Assay type: biochemical
Conditions: for efficacy in stabilizing BNP (in words): Table 11, inhibitors at usual functional concentrations
[1] = IHPP + 10 ng/ml BNP, 4° C., AEBSF 200 μg/ml, antipain 100 μg/ml, benzamidine 14 mM, PPACK 50 μg/ml, or all four

| SMILES | % Recovery vs 1st run (Time 0) | BNP, 1st run (Time 0) | BNP, 3 hours at 4° C. | BNP, 17 hours at 4° C. | BNP, 40 hours at 4° C. | BNP, 6 days at 4° C. | 1 week (RLU) [1] | 2 weeks (RLU) [1] | 4 weeks % Signal Recovered [1] | 4 weeks (RLU) [1] | 72 hrs (RLU) [1] | 22 days (RLU) [1] | Day 0 (RLU) [1] | efficacy in stabilizing BNP (in words) |
| --- | --- | --- | --- | --- | --- | --- | --- | --- | --- | --- | --- | --- | --- | --- |
| NCCc1ccc(S(=O)(=O)F)cc1 [AEBSF, 4-(2-aminoethyl)benzenesulfonylfluoride] | 85.2% | 741.7 pg/mL | 768.6 pg/mL | 715.2 pg/mL | 735.7 pg/mL | 631.9 pg/mL | 2504809 RLU | 4241 RLU | 0.1% | 2434 RLU | 3249767 RLU | 3812 RLU | 4079471 RLU | intermediate efficacy |
| NC(N)=NCCC[C@H](NC(=O)[C@@H]1CCCN1C(=O)[C@H](N)Cc1ccccc1)C(=O)CCl [PPRACK, D-Phe-Pro-Arg-chloromethylketone] | 100.5% | 892.0 pg/mL | 894.6 pg/mL | 957.6 pg/mL | 939.7 pg/mL | 896.2 pg/mL |  |  |  |  |  |  |  | act as efficiently as antipain, leupeptin and PPACK |
